PMC4726707, “Effect of Copper and Zinc on the Single Molecule Self-Affinity of Alzheimer’s Amyloid-β Peptides” (PLoS ONE, 2016)
pKd: −log10 of the molar value. “Also recorded” adds a separate entry of the source. Where two headings read alike, the source gives them in different places.

Columns and labels:
amyloid-β (1–42) (Aβ42) = target: T1, amyloid-β (1–42) (Aβ42) (Homo sapiens, UniProt P05067); test: Single molecule force spectroscopy / dynamic force spectroscopy (AFM) of Aβ-Aβ dimer dissociation, Friddle-De Yoreo model; assay type: binding; conditions: for change of Aβ-Aβ self-affinity / dimer dissociation constant by metal ion: 20 nM (nanomolar) metal ion vs aqueous HEPES buffer control; for change of association rate (kon) of Aβ-Aβ vs aqueous control: 20 nM metal ion, kon = koff/Kd; for pKd: read-out: chemical dissociation constant, Kd
T1 construct: purchased rPeptide (Bogart USA)
From the text: In this work we used single molecule force spectroscopy (SMFS) to further elucidate the mechanism of the very initial stage of amyloid aggregation—the dimerization of two peptides. SMFS is a nanoscale technique whereby an atomic force microscopy (AFM) tip is used to probe the unbinding of two molecules of interest—one bound to the surface, the other to the tip. When AFM tip is brought to the surface the binding between two Aβ monomers occur and when the tip is retracted the unbinding forces between two monomers are measured. To extract kinetic and thermodynamic parameters governing the system, the retraction velocity of the tip is varied. This iteration of SMFS is referred to as dynamic force spectroscopy (DFS).
We prepared our experiments in accordance with our previous force spectroscopy experiments, of which the methods are detailed extensively in [23]. Briefly, Veeco MLCT SiNi AFM cantilever were cleaned by soaking in ethanol and exposing to UV light for 30 minutes. […] The mica and cantilevers were then soaked for 3 hours in a solution of 3400 MW NHS-PEG-MAL (Laysan Bio, Alabaster GA) solution. […] The surface of the cantilever tip and mica surface were soaked in the Aβ solution for 30 minutes. Following rinsing, unreacted maleimide groups were quenched with b-merceptoethanol. Tips and mica were then rinsed and stored in HEPES buffer.
Typical cantilever spring constants were between 8 and 120 mN/m but varied with each individual experiment. Spring constants were measured using Hutter’s thermal noise method. A series of force curves were taken with an approach and retract velocity varying between 50 and 10,000 nm/s resulting in loading rates between 0.3 and 300 nN/s. Following the collection of an Aβ42 data set in HEPES buffer, a 20 nM metal ionic solution (Cu^2+ or Zn^2+) in HEPES buffer was added to the liquid cell of the AFM and additional force curves were collected for comparison.
JPK data analysis software was used to analyze force curves. […] The force curves were smoothed, the x-axis leveled, both axes set to 0, and the force curve corrected for cantilever bending to obtain tip-sample separation, z. A WLC fit was obtained for each force curve while rupture force and contour length data were recorded. Data was sorted in order of rupture force and the highest rupture force data were eliminated using Poisson statistics to eliminate force curves that were likely the result of simultaneous multiple unbinding events.
Loading rates were corrected to account for the effect of the PEG linker. We fit the Friddle-De Yoreo reversible binding equation to the entirety of the dataset (comprised of the rupture force and corrected loading rate of each force curve) using a Levenberg-Marquardt best fit algorithm in Origin 9.0 graphing software. For pooled datasets, we used the mean spring constant of the cantilevers used in the experiments. We extracted the equilibrium force, feq, the thermal scaling factor, fβ, and the kinetic off rate, koff(feq) at the equilibrium force as well as standard errors from the dataset using the graphing software. These parameters were then used to calculate parameters ΔG (the difference in free energy between the bound and free states), xβ (the width of the energy barrier), koff (the kinetic dissociation, or off- rate), and Kd (the dissociation constant) using the equations used in [34, 35].
Analysis of variance (ANOVA) testing was conducted on ΔG, xβ, koff, and Kd. Following the ANOVA test, a post hoc Welsh’s t-test was conducted to compare the parameters for the aqueous experiments compared to the copper experiments and for the aqueous environment experiments compared to the zinc experiments.

Aβ [1] = conditions: cited from earlier work
From the text: The role of metal ions on amyloid aggregation and toxicity has been studied extensively. […] Cu^2+ ions increase neurotoxicity by both accelerating amyloid aggregation and increasing oxidative stress. This increased propensity of Aβ to aggregate in a Cu^2+ rich environment has been attributed to Cu^2+ ions causing Aβ to move closer to its isoelectric point, thereby inducing aggregation. […] In this work, rather than determining the affinity of metal ions to the Aβ monomer, we calculated the self-affinity of two Aβ42 peptides in the presence of copper and zinc ions.

Aβ (1–42) = conditions: with Cu^2+ ions; cited from earlier work
From the text: Our previous results led us to hypothesize that since […] AD is largely a function of abnormal Aβ clearance, increased affinity of Aβ would make amyloid clearance considerably more problematic. In this work we used single molecule force spectroscopy (SMFS) to further elucidate the mechanism of the very initi ...

Aβ [2] = conditions: cited from earlier work; remark: listed apart in the source
From the text: Despite the well established effect ...

Compound | change of Aβ-Aβ self-affinity / dimer dissociation constant by metal ion (amyloid-β (1–42) (Aβ42); listed as copper) | change of association rate (kon) of Aβ-Aβ vs aqueous control (amyloid-β (1–42) (Aβ42)) | Cu^2+-Aβ affinity (Aβ [1]) | Cu^2+-Aβ affinity (Aβ [1]; listed as Copper) | unbinding force between two Aβ (1–42) peptides (Aβ (1–42)) | nucleation and elongation of amyloid fibril formation (Aβ [2]; substoichiometric concentrations of Cu^2+ ions) | Aβ aggregation onset (Aβ [2]; trace concentrations of copper vs aqueous without metal ions) | ΔG (free energy difference between bound and unbound states) for Aβ-Aβ unbinding (amyloid-β (1–42) (Aβ42); aqueous HEPES 50 mM buffer, pH 7.4, 150 mM NaCl, no metal ion added) | pKd (amyloid-β (1–42) (Aβ42); control, Aβ dimerization in HEPES buffer) | pKd (amyloid-β (1–42) (Aβ42); with 20 nM Cu^2+) | ΔG (free energy difference between bound and unbound states) for Aβ-Aβ unbinding (amyloid-β (1–42) (Aβ42); with Cu^2+ [20nM] in HEPES buffer pH 7.4) | ΔG (free energy difference between bound and unbound states) for Aβ-Aβ unbinding (amyloid-β (1–42) (Aβ42); with Zn^2+ [20nM] in HEPES buffer pH 7.4) | change of Aβ-Aβ self-affinity / dimer dissociation constant by metal ion (amyloid-β (1–42) (Aβ42)) | change of Aβ-Aβ self-affinity / dimer dissociation constant by metal ion (amyloid-β (1–42) (Aβ42); listed as zinc) | change of height of the energy barrier (amyloid-β (1–42) (Aβ42); with Zn^2+ 20 nM vs aqueous control)
[Cu+2] [Cu^2+, copper] | do not change the single molecule affinity of Aβ to another Aβ peptide in a statistically significant way; also recorded: does not change the dissociation constant by a statistically significant amount; also recorded: did not measure a significant effect | approximately half an order of magnitude higher; also recorded: approximately five times higher than the association rate in the control experiments | nanomolar to picomolar range | nano- to picomolar range | increased the unbinding force between two Aβ (1–42) peptides | induce acceleration in both the nucleation and elongation phases of amyloid fibril formation | Aβ begins to aggregate instantly compared to the characteristic lag period |  |  |  |  |  |  |  | 
amyloid-β (1–42) [Aβ-Aβ] |  |  |  |  |  |  |  | 7.83 ± 3.03 kBT | 3.40 | 3.76 | 8.66 ± 1.62 kBT | 4.89 ± 1.35 kBT |  |  | 
[Zn+2] [Zn^2+, zinc] |  | half an order of magnitude lower; also recorded: one-fifth of the control experiment |  |  |  |  |  |  |  |  |  |  | decreases the affinity of Aβ-Aβ interactions by an order of magnitude | decrease the affinity of Aβ-Aβ by an order of magnitude; also recorded: increases the dimer dissociation constant (which corresponds to a decreased monomer-monomer chemical affinity) by an order of magnitude | decreased the height of the energy barrier
